Patent US7098237B1, “Remedies for ischemia reperfusion injury” (Shionogi & Co., Ltd., priority 1998, dated 2006)

Experiments:
[1] = test system: Total Hepatic Vascular Exclusion Model (liver ischemia reperfusion); experiment: Hepatic function related factors (AST, ALT, LDH) by administration before ischemia, Total Hepatic Vascular Exclusion Model; format: in vivo, Beagle dogs; conditions: 0.2 mg/kg/hr continuous i.v. for one hour before ischemia; 2 h ischemia then reperfusion; peripheral artery blood
From the text: (§1) Beagle dogs (female, 10 to 12 kg) are used for experimental animals. Under the control of general anesthesia by inserting a tube into the trachea, a bypass is formed between the portal vein, femoral vein and external jugular vein. […] An auxiliary circulation is applied during this two hour's operation. Ischemia is continued for two hours, and reperfusion of the blood is resumed by releasing the clump. Various physiological changes are confirmed under laparotomy until three hours after reperfusion and thereafter abdomen is sutured (the method for maintaining anesthesia during this period follows the existing protocol, and fluctuation of the blood pressure and the like are not corrected by different anesthetic methods). Survival at two weeks after the surgery is confirmed.
The test compound is administered before and after warm ischemia. The compound is administered by intravenous injection.
Various factors related to the hepatic function and blood flow of hepatic tissues were measured by sampling over time from the peripheral artery and hepatic vein.
as §1, with “bypass was” for “bypass is”, “methods). The blood is collected from the peripheral artery to measure AST, ALT and LDH as indexes of the hepatic functions.” for “methods).”
The experimental group is divided into two groups with and without administration of the compound (1). […]

[2] = test system: Total Hepatic Vascular Exclusion Model (liver ischemia reperfusion); experiment: Blood flow in the hepatic tissue by administration before ischemia (laser Doppler method); format: in vivo, Beagle dogs; conditions: 0.2 mg/kg/hr continuous i.v. for one hour before ischemia
From the text: as §1, with “bypass was” for “bypass is”, “methods). The blood is collected from the peripheral artery to measure AST, ALT and LDH as indexes of the hepatic functions.” for “methods).”
A dosage of 0.2 mg/kg/hr of the compound (1) was administered by continuous intravenous injection through the peripheral vein during the period of one hour from before ischemia to the occurrence of ischemia.
(§2) The blood flow in the hepatic tissue was measured using a laser Doppler method.

[3] = test system: Total Hepatic Vascular Exclusion Model (liver ischemia reperfusion); experiment: Hepatic function related factors (AST, ALT, LDH) by administration after ischemia; format: in vivo, Beagle dogs; conditions: 0.2 mg/kg/hr continuous i.v. for one hour from 20 minutes before reperfusion to 40 minutes after reperfusion
From the text: as §1, with “bypass was” for “bypass is”, “methods). The blood is collected from the peripheral artery to measure AST, ALT and LDH as indexes of the hepatic functions.” for “methods).”
(§3) The experiments were carried out by the same method as in Example 1. A dosage of 0.2 mg/kg/hr of the compound (1) was administered by continuous intravenous injection through the peripheral vein for one hour from 20 minutes before blood reperfusion to 40 minutes after the reperfusion.

[4] = test system: Total Hepatic Vascular Exclusion Model (liver ischemia reperfusion); experiment: Blood flow in the hepatic tissue by administration after ischemia (laser Doppler method); format: in vivo, Beagle dogs; conditions: 0.2 mg/kg/hr continuous i.v. for one hour from 20 minutes before reperfusion to 40 minutes after reperfusion
Protocol: as §2, §3
The blood flow in the hepatic tissue was measured by the same method as in Examples 2 and 3.

[5] = test system: lung injury after small intestine ischemia reperfusion; conditions: Am. J. Physiol., 268: G397, 1995; cited from earlier work

Row | SMILES | ALT value compared with the control group (FIG. 2) [1] | AST value compared with the control group (FIG. 1) [1] | LDH value compared with the control group (FIG. 3) [1] | blood flow in the liver after reperfusion compared with the control group (FIG. 4) [2] | ALT value compared with the control group (FIG. 6) [3] | AST value compared with the control group (FIG. 5) [3] | LDH value compared with the control group (FIG. 7) [3] | blood flow after reperfusion compared with the control group (FIG. 8) [4] | occurrence of lung injury accompanied by reperfusion of the small intestine [5]
1 | CCc1c(C(=O)C(N)=O)c2c(OCC(=O)[O-])cc(C)cc2n1Cc1ccccc1.[Na+] [compound (1)] | significantly suppressed | significantly suppressed | significantly suppressed | significantly increased | significantly suppressed | significantly suppressed | significantly suppressed | significantly increased | 
2 | CCN(CC)CCCC(C)Nc1c2ccc(Cl)cc2nc2ccc(OC)cc12 (stereo not drawn) [quinacrine] |  |  |  |  |  |  |  |  | can be prevented
